According to publication PMC3917699, “Glucoamylase of Caulobacter crescentus CB15: cloning and expression in Escherichia coli and functional identification” (AMB Express, 2014):

Target: T1, CauloGA (Protein A-CauloGA fusion) (Caulobacter vibrioides, UniProt Q9A613)
T1 construct: gene CC_2282; putative signal peptide removed; N-terminal Staphylococcus Protein A (synthetic ZZ domain) fusion kept; pEZZ18, E. coli HB101; IgG Sepharose; fusion 96 kDa, CauloGA about 82 kDa
Experiment: initial rate, glucose release (F-kit D-glucose), nonlinear regression
Format: biochemical
Conditions: apparent substrate inhibition constant
From the text: initial rate, glucose release (F-kit D-glucose), nonlinear regression on CauloGA (Protein A-CauloGA fusion)

T1 sequence (Q9A613 entry or part of it): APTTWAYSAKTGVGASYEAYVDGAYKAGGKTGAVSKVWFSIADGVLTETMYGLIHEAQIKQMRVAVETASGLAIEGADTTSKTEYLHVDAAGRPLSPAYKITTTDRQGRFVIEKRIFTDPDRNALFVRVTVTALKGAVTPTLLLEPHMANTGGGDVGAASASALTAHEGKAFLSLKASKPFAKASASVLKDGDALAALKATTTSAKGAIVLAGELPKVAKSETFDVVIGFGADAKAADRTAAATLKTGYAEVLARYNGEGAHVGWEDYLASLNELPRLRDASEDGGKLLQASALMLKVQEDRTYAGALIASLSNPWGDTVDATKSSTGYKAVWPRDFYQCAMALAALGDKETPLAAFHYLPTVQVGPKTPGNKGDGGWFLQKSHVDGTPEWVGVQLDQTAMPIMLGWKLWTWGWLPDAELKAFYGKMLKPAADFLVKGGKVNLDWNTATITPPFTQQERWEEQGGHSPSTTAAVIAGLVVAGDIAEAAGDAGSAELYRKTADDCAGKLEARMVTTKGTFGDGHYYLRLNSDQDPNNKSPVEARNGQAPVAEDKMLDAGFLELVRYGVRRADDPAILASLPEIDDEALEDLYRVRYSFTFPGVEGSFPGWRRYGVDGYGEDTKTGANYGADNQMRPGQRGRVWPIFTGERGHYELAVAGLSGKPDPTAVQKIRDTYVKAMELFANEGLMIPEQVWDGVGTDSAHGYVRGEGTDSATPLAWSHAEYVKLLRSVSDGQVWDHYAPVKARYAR

Row | Ki^b (0-9 mM substrate, pH 5.0, 30°C) | Structure (SMILES) | also measured
1 |  | OC[C@H]1O[C@H](O[C@H]2[C@H](O)[C@@H](O)[C@@H](O[C@H]3[C@H](O)[C@@H](O)C(O)O[C@@H]3CO)O[C@@H]2CO)[C@H](O)[C@@H](O)[C@@H]1O (stereo partly drawn) [Maltotriose] | Ki^b (0-18 mM substrate, pH 5.0, 30°C, text b46 prints approximately 4.2 mM): 4490 ± 310 µM
2 | 920 ± 40 µM | OC[C@H]1O[C@H](O[C@H]2[C@H](O)[C@@H](O)[C@@H](O[C@H]3[C@H](O)[C@@H](O)[C@@H](O[C@H]4[C@H](O)[C@@H](O)[C@@H](O[C@H]5[C@H](O)[C@@H](O)C(O)O[C@@H]5CO)O[C@@H]4CO)O[C@@H]3CO)O[C@@H]2CO)[C@H](O)[C@@H](O)[C@@H]1O (stereo partly drawn) [Maltopentaose] | 
3 | 1250 ± 250 µM | OC[C@H]1O[C@H](O[C@H]2[C@H](O)[C@@H](O)[C@@H](O[C@H]3[C@H](O)[C@@H](O)[C@@H](O[C@H]4[C@H](O)[C@@H](O)[C@@H](O[C@H]5[C@H](O)[C@@H](O)[C@@H](O[C@H]6[C@H](O)[C@@H](O)[C@@H](O[C@H]7[C@H](O)[C@@H](O)C(O)O[C@@H]7CO)O[C@@H]6CO)O[C@@H]5CO)O[C@@H]4CO)O[C@@H]3CO)O[C@@H]2CO)[C@H](O)[C@@H](O)[C@@H]1O (stereo partly drawn) [Maltoheptaose] | 
4 |  | OC[C@H]1O[C@H](O[C@H]2[C@H](O)[C@@H](O)C(O)O[C@@H]2CO)[C@H](O)[C@@H](O)[C@@H]1O (stereo partly drawn) [Maltose] | Ki^b (0-18 mM substrate, 50 mM acetate buffer pH 5.0, 30°C): 38200 ± 1110 µM
5 |  | OC[C@H]1O[C@H](O[C@H]2[C@H](O)[C@@H](O)[C@@H](O[C@H]3[C@H](O)[C@@H](O)[C@@H](O[C@H]4[C@H](O)[C@@H](O)C(O)O[C@@H]4CO)O[C@@H]3CO)O[C@@H]2CO)[C@H](O)[C@@H](O)[C@@H]1O (stereo partly drawn) [Maltotetraose] | Ki^b (0-18 mM substrate, pH 5.0, 30°C): 1100 ± 60 µM
6 | 1050 ± 80 µM | OC[C@H]1O[C@H](O[C@H]2[C@H](O)[C@@H](O)[C@@H](O[C@H]3[C@H](O)[C@@H](O)[C@@H](O[C@H]4[C@H](O)[C@@H](O)[C@@H](O[C@H]5[C@H](O)[C@@H](O)[C@@H](O[C@H]6[C@H](O)[C@@H](O)C(O)O[C@@H]6CO)O[C@@H]5CO)O[C@@H]4CO)O[C@@H]3CO)O[C@@H]2CO)[C@H](O)[C@@H](O)[C@@H]1O (stereo partly drawn) [Maltohexaose] | 
